Like-named read-outs stand apart in the source and are kept apart here.

This note sets out measurements from patent publication US9586947B2, “Imidazoline derivatives, preparation methods thereof, and their applications in medicine” (priority 2012, dated 2017).

In one data set the test system is LNCaP cells. Briefly: Proliferation inhibition of LNCaP cells (CCK-8). In kind it is cell-based. The conditions noted are these: Homo sapiens, 144 h, cultured 3 + 3 days, CCK-8, OD at 450 nm. The procedure:
The following in vitro assay was performed to determine the activity of the compounds of the present invention for inhibiting the proliferation of LNCaP cells.
(1). Cell counting reagent CCK-8 (DOJINDO, CK04)
See experimental procedure from Test Example 1.
After LNCaP cells were cultured for 3 days, the culture medium, test compounds, blank group, and control group were renewed with half of the liquid volume, and were cultured for another 3 days. Then, all 96-well plates were mixed gently with 10 μl of CCK-8 and cultured in an incubator for 2-3 hours under the conditions of 37° C. and 5% CO2. The OD value per well was measured at 450 nm on a Victor3 microplate reader.
(§1) IC50 values were calculated from the data of the inhibition rates of the test compounds at various concentrations.

Data set [1] relates to PSA secretion of LNCaP cells. Briefly: Inhibitory activity on PSA secretion of LNCaP cells. In kind it is cell-based. The conditions noted are these: Homo sapiens, 96 h, read-out: IC50 (inhibition of PSA secretion of LNCaP cells). How it is done:
The following in vitro assay was performed to determine the activity of the compounds of the present invention for inhibiting prostate specific antigen (PSA) secretion of LNCaP cells.
(11). Testosterone culture medium: RIPM 1640 culture medium, 10% CS-FBS, 1% Pen Strep, 1 nM testosterone
LNCaP cells were subcultured in cell culture medium, resuspended in active carbon culture medium, and then inoculated into a 96-well plate (100 μl/well) with an inoculation density of 5×10^4 cells/well.
The test compounds were dissolved in DMSO (dimethyl sulfoxide) and prepared as a 10 mM stock solution. When used, the stock solution was diluted with 5×DMSO and then diluted with a threefold gradient to obtain 8 gradient concentrations. Then, the 8 gradient concentrations were each diluted with 20× testosterone culture medium, in order to ensure DMSO concentration in each culture system was 0.5%. Diluted test compounds remained to be tested.
10 μl of diluted test compounds were added to a 96-well plate and mixed gently. 10 μl of 0.5% DMSO diluted with active carbon culture medium was added to the blank group, and 10 μl of 0.5% DMSO diluted with testosterone culture medium was added to the control group. The 96-well plate was cultured in an incubator under the conditions of 37° C. and 5% CO2.
After 4 days of incubation, 60 μl of cell cultural supernatants were collected, and the OD450 value per well was measured on a NOVO Star microplate reader using PSA kit (Abnova, KA0208).
as §1

Data set [2] can be described thus: Pharmacokinetics assay in rats, intragastric administration. In kind it is in vivo. The conditions noted are these: Sprague-Dawley, rat, in vivo, po, male SD rats, 5 mg/kg; for Vd/F: read-out: Apparent Distribution Volume Vz/F; for AUC: read-out: Area Under Curve AUC; for CL/F: read-out: Clearance CLz/F; for half-life: read-out: Half-Life T½ (converted); for MRT: read-out: Mean Residence Time MRT; for Cmax: read-out: Plasma Conc. Cmax. The procedure:
Male rats were used as test animals. The compounds of Example 6, Example 9, Example 11, Example 13, Example 15, Example 16, Example 17, Example 44, and Example 45 were administered intragastrically to rats to determine the drug concentration in plasma at different time points by LC/MS/MS method. The pharmacokinetic behavior of the compounds of the present invention was studied and evaluated in rats.
27 healthy adult male Sprague-Dawley (SD) rats, purchased from SINO-BRITISH SIPPR/BK LAB. ANIMAL LTD., CO, Certificate No.: SCXK (Shanghai) 2008-0016, were divided into 9 groups, with 3 rats in each group.
The appropriate amount of test compounds was weighed and mixed with 0.5% CMC-Na to prepare a 0.5 mg/mL suspension by an ultrasonic method.
After an overnight fast, 27 SD rats were divided into 9 groups, and administered the compounds intragastrically at a dose of 5.0 mg/kg and an administration volume of 10 mL/kg.
Compounds of Example 6, Example 9, Example 11, Example 13, Example 15, Example 16, Example 17, Example 44, and Example 45 were administered intragastrically to rats. Blood samples (0.1 mL) were taken from the orbital sinus before administration, and at 0.5 h, 1.0 h, 2.0 h, 3.0 h, 4.0 h, 6.0 h, 8.0 h, 11.0 h, and 24.0 h after administration, stored in heparinized tubes, and centrifuged for 5 minutes at 3,500 rpm to separate blood plasma. The plasma samples were stored at −20° C. The rats were fed 2 hours after administration.
The concentration of the different test compounds in rat plasma after intragastrically administering the test compounds was determined by LC-MS/MS method. The linearity of the method is 1.00-2000 ng/ml. Plasma samples were analyzed after protein precipitation was accomplished by the addition of methanol.

[3] abbreviates: LNCaP cells, 1 nM testosterone medium, 4 days of incubation, PSA kit OD450.

Take `CC1(C)C(=O)N(c2ccc(C#N)c(C(F)(F)F)c2)C(=S)N1c1ccc(OC2CCNC2)c(F)c1` (centres unmarked) [Example 28, 4-(3-(3-Fluoro-4-((pyrrolidin-3-yl)oxy)phenyl)-4,4-dimethyl-5-oxo-2-thioxoimidazolidin-1-yl)-2-(trifluoromethyl)benzonitrile]: the IC50 with LNCaP cells was found to be 79 nM; in data set [1] (setting [3]) it was 82 nM.

`CC1(C)C(=O)N(c2ccc(C#N)c(C(F)(F)F)c2)C(=S)N1c1ccc(O[C@H]2CCOC2)c(F)c1` [Example 2, (S)-4-(3-(3-Fluoro-4-((tetrahydrofuran-3-yl)oxy)phenyl)-4,4-dimethyl-5-oxo-2-thioxoimidazolidin-1-yl)-2-(trifluoromethyl)benzonitrile]: the IC50 in the data set on LNCaP cells is 97 nM; in data set [1] (setting [3]), 45 nM.

Turning to `CC1(C)C(=O)N(c2ccc(C#N)c(C(F)(F)F)c2)C(=S)N1c1ccc(OC(F)F)nc1` [Example 30, 4-(3-(6-(Difluoromethoxy)pyridin-3-yl)-4,4-dimethyl-5-oxo-2-thioxoimidazolidin-1-yl)-2-(trifluoromethyl)benzonitrile], the IC50 in the data set on LNCaP cells turned out to be 58 nM; in data set [1] (setting [3]), 17 nM.

Regarding `CC1(C)C(=O)N(c2ccc(C#N)c(C(F)(F)F)c2)C(=S)N1c1ccc(OCC2(N)CC2)cc1` [Example 37, 4-(3-(4-((1-Aminocyclopropyl)methoxy)phenyl)-4,4-dimethyl-5-oxo-2-thioxoimidazolidin-1-yl)-2-(trifluoromethyl)benzonitrile], the figures for the IC50 (in the data set with LNCaP cells; in data set [1] (setting [3])) were 63 nM and 23 nM, respectively.

Take `CC(=O)N1CC(O)C(Oc2ccc(N3C(=S)N(c4ccc(C#N)c(C(F)(F)F)c4)C(=O)C3(C)C)cc2F)C1` (centres unmarked) [Example 46, 4-(3-(4-((1-Acetyl-4-hydroxypyrrolidin-3-yl)oxy)-3-fluorophenyl)-4,4-dimethyl-5-oxo-2-thioxoimidazolidin-1-yl)-2-(trifluoromethyl)benzonitrile]: the IC50 in data set [1] (setting [3]) was found to be 47 nM.

For `CC1(C)C(=O)N(c2ccc(C#N)c(C(F)(F)F)c2)C(=S)N1c1ccc(OC2CCOCC2)c(F)c1` [Example 4, 4-(3-(3-Fluoro-4-((tetrahydro-2H-pyran-4-yl)oxy)phenyl)-4,4-dimethyl-5-oxo-2-thioxoimidazolidin-1-yl)-2-(trifluoromethyl)benzonitrile], the IC50 in data set [1] (setting [3]) worked out at 93 nM.

As to `CN1CC(O)C(Oc2ccc(N3C(=S)N(c4ccc(C#N)c(C(F)(F)F)c4)C(=O)C3(C)C)cc2F)C1` (centres unmarked) [Example 47, 4-(3-(3-Fluoro-4-((4-hydroxy-1-methylpyrrolidin-3-yl)oxy)phenyl)-4,4-dimethyl-5-oxo-2-thioxoimidazolidin-1-yl)-2-(trifluoromethyl)benzonitrile], the IC50 in data set [1] (setting [3]) was 21 nM.

`CN1CC[C@H](Oc2ccc(N3C(=S)N(c4ccc(C#N)c(C(F)(F)F)c4)C(=O)C3(C)C)cc2F)C1` [Example 27, (S)-4-(3-(3-Fluoro-4-((1-methylpyrrolidin-3-yl)oxy)phenyl)-4,4-dimethyl-5-oxo-2-thioxoimidazolidin-1-yl)-2-(trifluoromethyl)benzonitrile]: the IC50 in data set [1] (setting [3]) came out at 83 nM.

Turning to `CC1(C)C(=O)N(c2ccc(C#N)c(C(F)(F)F)c2)C(=S)N1c1ccc(OC[C@H](O)CO)c(F)c1` [Example 50, (R)-4-(3-(4-(2,3-Dihydroxypropoxy)-3-fluorophenyl)-4,4-dimethyl-5-oxo-2-thioxoimidazolidin-1-yl)-2-(trifluoromethyl)benzonitrile], in data set [1] (LNCaP), the IC50 worked out at 43 nM.

Consider `Cc1cc(N2C(=O)C(C)(C)N(c3ccc(OCC4(N)CC4)c(F)c3)C2=S)ccc1C#N` [Example 38, 4-(3-(4-((1-Aminocyclopropyl)methoxy)-3-fluorophenyl)-4,4-dimethyl-5-oxo-2-thioxoimidazolidin-1-yl)-2-methylbenzonitrile], for which the IC50 in data set [1] (setting [3]) was determined as 33 nM.

Consider `CC1(C)C(=O)N(c2ccc(C#N)c(C(F)(F)F)c2)C(=S)N1c1ccc(OCC2(N)CC2)nc1` [Example 11, 4-(3-(6-((1-Aminocyclopropyl)methoxy)pyridin-3-yl)-4,4-dimethyl-5-oxo-2-thioxoimidazolidin-1-yl)-2-(trifluoromethyl)benzonitrile], for which, in data set [2], the Vd/F was found to be 9.94 ± 0.633 L/kg, the AUC was found to be 11400 ± 1380 ng·h/mL, the CL/F is 7.35 ± 0.87 mL/min/kg and the half-life is 15.8 ± 2.2 h. Further, in data set [2], the MRT came out at 23.2 ± 2.9 h and the Cmax worked out at 430 ± 14 ng/mL. In data set [1] (LNCaP), the IC50 is 35 nM.

As for `CC1(C)C(=O)N(c2ccc(C#N)c(C(F)(F)F)c2)C(=S)N1c1ccc(O[C@@H]2COC[C@H]2O)cc1` (racemic) [Example 14, 4-(3-(4-(((3R,4R/3S,4S)-4-Hydroxytetrahydrofuran-3-yl)oxy)phenyl)-4,4-dimethyl-5-oxo-2-thioxoimidazolidin-1-yl)-2-(trifluoromethyl)benzonitrile], in data set [1] (LNCaP), the IC50 was found to be 19 nM.

Turning to `CC1(C)C(=O)N(c2ccc(C#N)c(C(F)(F)F)c2)C(=S)N1c1ccc(O[C@H]2COC[C@@H]2O)cc1` [Example 16, 4-(3-(4-(((3S,4S)-4-hydroxytetrahydrofuran-3-yl)oxy)phenyl)-4,4-dimethyl-5-oxo-2-thioxoimidazolidin-1-yl)-2-(trifluoromethyl)benzonitrile], in data set [2], the Vd/F is 3.59 ± 0.662 L/kg, the AUC worked out at 23300 ± 5900 ng·h/mL, the CL/F stood at 3.71 ± 0.84 mL/min/kg and the half-life is 11.3 ± 1.3 h. In data set [2], the MRT came out at 18.4 ± 2.6 h and the Cmax turned out to be 971 ± 147 ng/mL. The IC50 in data set [1] (LNCaP) came to 12 nM.

Regarding `CC1(C)C(=O)N(c2ccc(C#N)c(C(F)(F)F)c2)C(=S)N1c1ccc(OC[C@@H](O)CO)c(F)c1` [Example 49, (S)-4-(3-(4-(2,3-Dihydroxypropoxy)-3-fluorophenyl)-4,4-dimethyl-5-oxo-2-thioxoimidazolidin-1-yl)-2-(trifluoromethyl)benzonitrile], the IC50 in data set [1] (LNCaP) is 35 nM.

Regarding `CC1(C)C(=O)N(c2ccc(C#N)c(C(F)(F)F)c2)C(=S)N1c1ccc(OCCO)cc1` [Example 17, 4-(3-(4-(2-Hydroxyethoxy)phenyl)-4,4-dimethyl-5-oxo-2-thioxoimidazolidin-1-yl)-2-(trifluoromethyl)benzonitrile], in data set [2], the Vd/F is 3.76 ± 0.591 L/kg, the area under the curve (AUC) was 12200 ± 1520 ng·h/mL, the CL/F came out at 6.88 ± 0.89 mL/min/kg and the half-life was 6.31 ± 0.5 h. In addition, in data set [2], the MRT was 10.8 ± 0.8 h and the Cmax was 864 ± 86 ng/mL. The IC50 in data set [1] (LNCaP) was found to be 24 nM.

Consider `CC1(C)C(=O)N(c2ccc(C#N)c(C(F)(F)F)c2)C(=S)N1c1ccc(O[C@@H]2COC[C@H]2O)c(F)c1` (racemic) [Example 7, 4-(3-(3-Fluoro-4-(((3R,4R/3S,4S)-4-hydroxytetrahydrofuran-3-yl)oxy)phenyl)-4,4-dimethyl-5-oxo-2-thioxoimidazolidin-1-yl)-2-(trifluoromethyl)benzonitrile], for which the IC50 in data set [1] (LNCaP) came to 23 nM.

By IC50 is commonly meant the concentration needed to halve the response being measured. By AUC is commonly meant concentration integrated over time. As a reminder, the half-life is the time in which the quantity being followed falls by half. As a reminder, the MRT is a mean duration of stay, worked out from the concentration-time curve. As usually defined, the Cmax is the maximum level reached in the sampled fluid or tissue.
